The structures appear in SMILES notation. Bounds are passed on as bounds.

Type in all cases: in vivo
In assay [1] the test system is diamondback moth (Plutella xylostella (L.)). Description: Test A: control of diamondback moth on mustard plant, spray. Particulars: sprayed at 250 ppm; assessed after 6 days. How it is done:
(§1) Test compounds were formulated using a solution containing 10% acetone, […] and 300 ppm Activator 909 non-ionic surfactant (Loveland Products, Loveland, Colorado, USA). The formulated compounds were applied in 1 mL of liquid through an atomizer nozzle positioned 1.27 cm (0.5 inches) above the top of each test unit. Test compounds were sprayed at the rates indicated, and each test was replicated three times.
For evaluating control of diamondback moth (Plutella xylostella (L.)) the test unit consisted of a small open container with a 12-14-day-old mustard plant inside. This was pre-infested with ˜50 neonate larvae that were dispensed into the test unit via corn cob grits using an inoculator. The larvae moved onto the test plant after being dispensed into the test unit.
Test compounds were formulated and sprayed at 250 ppm. After spraying of the formulated test compound, each test unit was allowed to dry for 1 hour and then a black, screened cap was placed on top. The test units were held for 6 days in a growth chamber at 25° C. and 70% relative humidity. Plant feeding damage was then visually assessed based on foliage consumed, and larvae were assessed for mortality.

Assay [2] relates to corn planthopper (Peregrinus maidis (Ashmead)). Description: whole plant or invertebrate. Particulars: Peregrinus maidis, 144 h, 6 days; for mortality at 10 ppm: sprayed at 10 ppm; for mortality at 50 ppm: sprayed at 50 ppm; for mortality at 250 ppm: sprayed at 250 ppm. The gist of the method:
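Corn plants 3-4 days old were sprayed at 250, 50 and/or 10 ppm in 10% acetone with 300 ppm non-ionic surfactant, three replicates, contact and/or systemic exposure. After 1 h drying, ~15-20 nymphs (18-to-21-day-old) were added; mortality assessed visually after 6 days at 22-24° C, 50-70% RH.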

Assay [3] deals with green peach aphid (Myzus persicae (Sulzer)). Description: Test D: control of green peach aphid on radish plant, spray. Particulars: Myzus persicae, 144 h, 6 days; for mortality at 50 ppm: sprayed at 50 ppm; for mortality at 250 ppm: sprayed at 250 ppm. The method, boiled down: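 Radish plants (12-15 days old) pre-infested with 30-40 aphids, sprayed with compound in 10% acetone/water with 300 ppm non-ionic surfactant at 250 and/or 50 ppm, three replicates. Held 6 days at 19-21 °C, 50-70% relative humidity, then mortality scored visually.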

Assay [4] relates to cotton melon aphid (Aphis gossypii (Glover)). The assay can be described thus: whole plant or invertebrate. The settings on record: Aphis gossypii, 144 h, 6 days; for mortality at 50 ppm: sprayed at 50 ppm; for mortality at 250 ppm: sprayed at 250 ppm. The gist of the method: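 Compounds were formulated in a solution of 10% acetone, […] and 300 ppm Activator 909 non-ionic surfactant and sprayed as 1 mL through an atomizer nozzle 1.27 cm (0.5 inches) above each test unit, with three replicates. Units were pre-infested with 30-40 aphids on leaf pieces via the cut-leaf method, soil covered with sand, then kept 6 days at 19° C. and 70% relative humidity before visual mortality scoring.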

Assay [5] has as its system sweetpotato whitefly (Bemisia tabaci (Gennadius)). The assay can be described thus: Test F: control of sweetpotato whitefly on cotton plant, spray. The settings on record: 312 h, 13 days; for mortality at 50 ppm: sprayed at 50 ppm; for mortality at 250 ppm: sprayed at 250 ppm. How it is done:
as §1
For evaluating control of the sweetpotato whitefly (Bemisia tabaci (Gennadius)) through contact and/or systemic means, the test unit consisted of a small open container with a 12-14-day-old cotton plant inside. Prior to the spray application, both cotyledons were removed from the plant, leaving one true leaf for the assay. Adult whiteflies were allowed to lay eggs on the plant and then were removed from the test unit. Cotton plants infested with at least 15 eggs were submitted to the test for spraying.
Test compounds were formulated and sprayed at 250 and/or 50 ppm. After spraying, the test units were allowed to dry for 1 hour. The cylinders were then removed, and the units were taken to a growth chamber and held for 13 days at 28° C. and 50-70% relative humidity. Each test unit was then visually assessed for insect mortality.

In general, mortality refers to the share of the test organisms that died. Read a low mortality as more survivors. Consider `N#Cc1cncc(-n2nccn2)c1C(F)c1ccc(OC(F)(F)F)cc1` (stereo not drawn) [Compound 48], for which the “control efficacy (40% or less feeding damage and/or 100% mortality)” value in assay [1] is “very good to excellent levels of control efficacy”. In assay [2], this molecule yielded a mortality at 10 ppm of at least 80% and a mortality at 50 ppm of at least 80%. In addition, in assay [3], the mortality at 50 ppm was at least 80% and the mortality at 250 ppm was at least 80%.
In the case of `Fc1cncc(-c2cnco2)c1C(F)c1ccc(SC(F)(F)F)cc1` (stereo not drawn) [Compound 100], in assay [1], the “control efficacy (40% or less feeding damage and/or 100% mortality)” value was “very good to excellent levels of control efficacy”. In assay [4], the mortality at 50 ppm was at least 80% and the mortality at 250 ppm was at least 80%.
For `Fc1cncc(-c2cnco2)c1C(F)c1ccc(OC(F)(F)F)cc1` (stereo not drawn) [Compound 34], the “control efficacy (40% or less feeding damage and/or 100% mortality)” value in assay [1] is reported as “very good to excellent levels of control efficacy”. Also, the mortality at 50 ppm in assay [2], in assay [3] and in assay [4] was at least 80% each time. Further, the mortality at 250 ppm in assay [2], in assay [3] and in assay [4] was at least 80% throughout.
For `Fc1cncc(-n2cncn2)c1C(F)c1ccc(C(F)(F)F)cc1` (stereo not drawn) [Compound 18], the “control efficacy (40% or less feeding damage and/or 100% mortality)” value in assay [1] was “very good to excellent levels of control efficacy”. In assay [2], this molecule yielded a mortality at 50 ppm of at least 80% and a mortality at 250 ppm of at least 80%. Moreover, in assay [3], the mortality at 50 ppm was at least 80% and the mortality at 250 ppm is at least 80%.
Turning to `FC(c1ccc(SC(F)(F)F)cc1)c1c(Cl)cncc1-c1cnco1` (stereo not drawn) [Compound 105], the “control efficacy (40% or less feeding damage and/or 100% mortality)” value in assay [1] is “very good to excellent levels of control efficacy”. Also, in assay [2], the mortality at 50 ppm was at least 80% and the mortality at 250 ppm was at least 80%. In assay [4], the mortality at 50 ppm is at least 80% and the mortality at 250 ppm is at least 80%.
Take `CCn1nccc1-c1cncc(F)c1C(F)c1ccc(OC(F)(F)F)cc1` (stereo not drawn) [Compound 55]: in assay [1], the “control efficacy (40% or less feeding damage and/or 100% mortality)” value is “very good to excellent levels of control efficacy”. The mortality at 50 ppm in assay [2] was at least 80%.
In the case of `Fc1cncc(-c2ccco2)c1C(F)c1ccc(OC(F)(F)F)cc1` (stereo not drawn) [Compound 22], the “control efficacy (40% or less feeding damage and/or 100% mortality)” value in assay [1] is reported as “very good to excellent levels of control efficacy”. Also, in assay [2], the mortality at 10 ppm is at least 80%, the mortality at 50 ppm was at least 80% and the mortality at 250 ppm is at least 80%. For the same molecule, the mortality at 250 ppm in assay [3] is at least 80%. In assay [4], this molecule yielded a mortality at 50 ppm of at least 80% and a mortality at 250 ppm of at least 80%.
For the molecule `COC(c1ccc(SC(F)(F)F)cc1)c1c(Br)cncc1-n1nccn1` (stereo not drawn) [Compound 133], the “control efficacy (40% or less feeding damage and/or 100% mortality)” value in assay [1] is reported as “very good to excellent levels of control efficacy”. Also, in assay [4], the mortality at 50 ppm is at least 80% and the mortality at 250 ppm was at least 80%. In assay [5], the mortality at 50 ppm is at least 70% and the mortality at 250 ppm is at least 70%.
On to `COC(c1ccc(SC(F)F)cc1)c1c(F)cncc1-n1nccn1` (stereo not drawn) [Compound 118], for which the “control efficacy (40% or less feeding damage and/or 100% mortality)” value in assay [1] is “very good to excellent levels of control efficacy”. Moreover, the mortality at 50 ppm in assay [3] was at least 80%; in assay [4] it was at least 80%; in assay [5], at least 70%. Also, the mortality at 250 ppm in assay [3] was at least 80%; in assay [4], at least 80%; in assay [5], at least 70%.
As to `Fc1cncc(-c2nnco2)c1C(F)c1ccc(OC(F)(F)F)cc1` (stereo not drawn) [Compound 30], in assay [1], the “control efficacy (40% or less feeding damage and/or 100% mortality)” value is reported as “very good to excellent levels of control efficacy”. In assay [2], this molecule returned a mortality at 10 ppm of at least 80%, a mortality at 50 ppm of at least 80% and a mortality at 250 ppm of at least 80%. Besides, the mortality at 250 ppm in assay [3] is at least 80%.
Consider `FC(c1ccc(OC(F)(F)F)cc1)c1c(Cl)cncc1-c1cnco1` (stereo not drawn) [Compound 60], for which the “control efficacy (40% or less feeding damage and/or 100% mortality)” value in assay [1] is reported as “very good to excellent levels of control efficacy”. Besides, the mortality at 250 ppm in assay [4] is at least 80%.
In the case of `Cn1ccc(-c2cncc(F)c2C(F)c2ccc(OC(F)(F)F)cc2)n1` (stereo not drawn) [Compound 59], the “control efficacy (40% or less feeding damage and/or 100% mortality)” value in assay [1] is “very good to excellent levels of control efficacy”. In assay [4], this molecule registered a mortality at 250 ppm of at least 80%.
For `COC(c1ccc(SC(F)(F)F)cc1)c1c(I)cncc1-n1nccn1` (stereo not drawn) [Compound 120], the “control efficacy (40% or less feeding damage and/or 100% mortality)” value in assay [1] is reported as “very good to excellent levels of control efficacy”. Moreover, the mortality at 50 ppm is at least 80% in assay [2] and at least 70% in assay [5]. Also, the mortality at 250 ppm was at least 80% in assay [2] and at least 70% in assay [5].
With `FC(c1ccc(OC(F)(F)F)cc1)c1c(Cl)cncc1-c1ncco1` (stereo not drawn) [Compound 51], in assay [1], the “control efficacy (40% or less feeding damage and/or 100% mortality)” value is listed as “very good to excellent levels of control efficacy”. Besides, in assay [2], the mortality at 10 ppm was at least 80% and the mortality at 50 ppm was at least 80%. In assay [4], this molecule yielded a mortality at 50 ppm of at least 80% and a mortality at 250 ppm of at least 80%.
For the molecule `COC(c1ccc(SC(F)(F)F)cc1)c1c(Cl)cncc1-n1nccn1` (single isomer, unassigned) [Compound 130], the “control efficacy (40% or less feeding damage and/or 100% mortality)” value in assay [1] is given as “very good to excellent levels of control efficacy”. In assay [2], this molecule returned a mortality at 10 ppm of at least 80%, a mortality at 50 ppm of at least 80% and a mortality at 250 ppm of at least 80%. In assay [3], this molecule registered a mortality at 50 ppm of at least 80% and a mortality at 250 ppm of at least 80%. Besides, in assay [4], the mortality at 50 ppm was at least 80% and the mortality at 250 ppm is at least 80%.
Consider `Fc1cncc(-c2ccoc2)c1C(F)c1ccc(OC(F)(F)F)cc1` (stereo not drawn) [Compound 23], for which, in assay [1], the “control efficacy (40% or less feeding damage and/or 100% mortality)” value is on record as “very good to excellent levels of control efficacy”. In assay [2], this molecule registered a mortality at 50 ppm of at least 80% and a mortality at 250 ppm of at least 80%. The same molecule returned a mortality at 250 ppm in assay [3] of at least 80%.
Regarding `Fc1cncc(-n2nccn2)c1C(F)c1ccc(C(F)(F)F)cc1` (stereo not drawn) [Compound 20], the “control efficacy (40% or less feeding damage and/or 100% mortality)” value in assay [1] is “very good to excellent levels of control efficacy”. In addition, the mortality at 50 ppm in assay [2], in assay [3] and in assay [4] was at least 80% throughout. Also, the mortality at 250 ppm in assay [2], in assay [3] and in assay [4] was at least 80% throughout.
For the molecule `Fc1cncc(-n2nccn2)c1C(F)c1ccc(Br)cc1` (stereo not drawn) [Compound 92], the “control efficacy (40% or less feeding damage and/or 100% mortality)” value in assay [1] was “very good to excellent levels of control efficacy”. In assay [2], this molecule yielded a mortality at 10 ppm of at least 80%, a mortality at 50 ppm of at least 80% and a mortality at 250 ppm of at least 80%. Further, in assay [4], the mortality at 50 ppm was at least 80% and the mortality at 250 ppm was at least 80%. In assay [5], this molecule yielded a mortality at 50 ppm of at least 70% and a mortality at 250 ppm of at least 70%.
On to `Fc1cncc(-n2cccn2)c1C(F)c1cnc(C(F)(F)F)nc1` (stereo not drawn) [Compound 162], for which the “control efficacy (40% or less feeding damage and/or 100% mortality)” value in assay [1] is listed as “very good to excellent levels of control efficacy”.
Consider `Fc1cncc(-c2cccs2)c1C(F)c1ccc(OC(F)(F)F)cc1` (stereo not drawn) [Compound 45], for which the “control efficacy (40% or less feeding damage and/or 100% mortality)” value in assay [1] is recorded as “very good to excellent levels of control efficacy”. In assay [2], the mortality at 10 ppm was at least 80% and the mortality at 50 ppm was at least 80%. In assay [4], this molecule registered a mortality at 50 ppm of at least 80% and a mortality at 250 ppm of at least 80%.
`Cc1noc(-c2cncc(Cl)c2C(F)c2ccc(SC(F)(F)F)cc2)n1` (racemic) [Compound 103]: the “control efficacy (40% or less feeding damage and/or 100% mortality)” value in assay [1] is on record as “very good to excellent levels of control efficacy”.

Source of the values: US12568969B2, “Pyridine compounds for controlling invertebrate pests” (FMC Corporation, priority 2020, dated 2026).
